Experimental data taken from publication PMC9929232, “On-demand male contraception via acute inhibition of soluble adenylyl cyclase” (Nature Communications, 2023).
Where “and” joins values, the source holds several entries; their conditions need not be identical. Equal values may be shown once.

Columns and labels:
[1] = molecular target: T1, immobilized human sAC protein (Homo sapiens, UniProt Q96PN6); test: Surface plasmon resonance binding kinetics;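 also: Reference-channel response subtracted from active-channel response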; settings: Fig. 1e
T1 construct: recombinant purified His-tagged sACt protein (50 μg/ml)
T1 sequence (Q96PN6 1-469 limits assumed): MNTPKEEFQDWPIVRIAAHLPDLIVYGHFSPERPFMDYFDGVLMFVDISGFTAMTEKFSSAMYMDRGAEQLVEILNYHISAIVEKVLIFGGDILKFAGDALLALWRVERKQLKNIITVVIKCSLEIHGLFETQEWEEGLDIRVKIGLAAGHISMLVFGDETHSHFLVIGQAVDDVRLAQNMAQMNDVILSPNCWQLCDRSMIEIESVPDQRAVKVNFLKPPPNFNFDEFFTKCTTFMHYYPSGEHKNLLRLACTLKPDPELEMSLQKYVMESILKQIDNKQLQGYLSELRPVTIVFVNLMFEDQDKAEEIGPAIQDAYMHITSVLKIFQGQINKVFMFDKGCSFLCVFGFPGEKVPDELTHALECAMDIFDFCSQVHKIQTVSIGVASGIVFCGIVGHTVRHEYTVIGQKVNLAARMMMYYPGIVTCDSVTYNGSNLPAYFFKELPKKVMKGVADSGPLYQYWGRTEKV
Procedure: Association and dissociation rate constants of sAC inhibitors were obtained with a Biacore 8K instrument (Cytiva) using a parallel kinetics protocol. Series S Sensor NTA chips (Cytiva) were prepared by applying recombinant purified His-tagged sACt protein (50 μg/ml) in PBS-P+ buffer (1 mM KH2PO4, 150 mM NaCl, 6 mM Na2HPO4, 0.05% (w/v) P20 Surfactant). The His-tagged sAC protein was captured via Ni^2+-His-tag chelation and covalently immobilized by amine coupling with a 1:1 mixture of 1-ethyl-3-(3-dimethylaminopropyl) carbodiimide and N-hydroxysuccinimide (active channels). After coupling, remaining reactive groups on the chip’s surface were blocked with 1 M ethanolamine followed by 350 mM EDTA to wash away any free Ni^2+. Following preparation, TBS-P+ running buffer (50 mM Tris, 150 mM NaCl, and 0.05% P20 Surfactant) supplemented with 1% DMSO was flowed over the surface of the chip until a stable baseline was obtained. For each sAC inhibitor, which were dissolved in DMSO and diluted in running buffer, increasing concentrations were injected into parallel channels for 120 s at a flow rate of 50 µl/min followed by running buffer for 600 s to allow for dissociation. All experiments included reference channels; i.e., inhibitor run over parallel channels without immobilized protein. […] Curves were fitted, and kon, KD, and koff values were determined using the Biacore 8K Insight Evaluation Software Version 2.0 (Cytiva) and a 1:1 binding kinetics model.

mouse sperm = test: Flagellar beat frequency of tethered mouse sperm; assay type: cell-based
Procedure: (§1) An inverted dark-field video microscope (IX73; Olympus) with a 10 x objective (mouse sperm) or a 20 x objective (human sperm) (UPLSAPO, NA 0.8; Olympus) was combined with a high-speed camera (ORCA Fusion; Hamamatsu). Dark-field videos were recorded with a frame rate of 200 Hz. The temperature of the heated stage was set to 37 °C (stage top incubator WSKMX; TOKAI HIT). The images were preprocessed with the ImageJ plugin SpermQ Preparator (Gaussian blur with sigma 0.5 px; subtract background method with radius 5 px) and analyzed using the ImageJ plugin SpermQ[57]. The beat frequency was determined from the highest peak in the frequency spectrum of the curvature time course, obtained by Fast Fourier Transform.

[2] = molecular target: T2, purified recombinant human sAC protein (Homo sapiens, UniProt Q96PN6); test: In vitro adenylyl cyclase activity assay (two-column method);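 as to cyclase activity (%): 100% equals DMSO vehicle-treated control activity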; assay type: biochemical; settings: for cyclase activity (%): Fig. 1c normalized replicates; for cyclase activity: Fig. 1c replicates
T2 construct: human sACt protein was incubated
T2 sequence (Q96PN6 1-469 limits assumed): T1 sequence (Q96PN6 1-469 limits assumed)
Procedure: All in vitro adenylyl cyclase activity assays were performed via the “two-column” method measuring the conversion of [α-^32P] ATP into [^32P] cAMP[54], as previously described. Briefly, human sACt protein was incubated in buffer containing 50 mM Tris-HCl, pH 7.5, 4 mM MgCl2, 2 mM CaCl2, 1 mM ATP, 3 mM DTT, 40 mM NaHCO3 in the presence of the indicated concentrations of different sAC inhibitors or vehicle (1% DMSO).

human sperm [3] = test: Acrosome reaction assay, human sperm, progesterone-evoked; assay type: cell-based; settings: Fig. 2h replicates, 5 μM TDI-10229 or 10 nM TDI-11861
Procedure: Acrosome reaction was induced by incubating mouse sperm with 50 mouse solubilized zonae pellucidae for 15 min at 37 °C. Human sperm were incubated with 10 μM progesterone for 30 min at 37 °C. […] Samples were air-dried on microscope slides and fixed for 30 minutes in 100% ethanol at room temperature (RT). For acrosome staining, mouse and human sperm were incubated for 30 min in the dark with 5 μg/ml PNA-FITC or 5 μg/ml PSA-FITC, respectively, and counterstained with 2 μg/ml DAPI. After curing, slides were analyzed using a Zeiss LSM 880 Laser Scanning Confocal Microscope; images were captured with two photomultiplier and one Gallium Arsenide Phosphide detector using ZEN Imaging software. For each condition, at least 600 cells were analyzed using ImageJ 1.52.

human sperm [4] = test: Flagellar beat frequency of tethered human sperm; assay type: cell-based
Procedure: as §1

[5] = concentration (uM) -0.52288 [sic]
[6] = concentration (uM) -1.95424 [sic]
[7] = concentration (uM) -2.43136 [sic]
[8] = concentration (uM) -2.90848 [sic]
[9] = concentration (uM) -3.38561 [sic]
[10] = concentration (uM) printed 0.477121
[11] = concentration (uM) printed -1.47712

- SPR sensorgram response ([1]; 2.3 nM, Time 1.8 s): -0.005
- SPR sensorgram response ([1]; 2.3 nM, Time 1.9 s): -0.0004
- SPR sensorgram response ([1]; 2.3 nM, Time 2 s): 1.724e-7
- SPR sensorgram response ([1]; 7 nM, Time 1.8 s): 0.0365
- SPR sensorgram response ([1]; 7 nM, Time 1.9 s): 0.0954
- SPR sensorgram response ([1]; 7 nM, Time 2 s): 0.1127
- SPR sensorgram response ([1]; 21 nM, Time 1.8 s): 0.0362
- SPR sensorgram response ([1]; 21 nM, Time 1.9 s): 0.0362
- SPR sensorgram response ([1]; 21 nM, Time 2 s): 0.0493
- SPR sensorgram response ([1]; 62 nM, Time 1.8 s): 0.4405
- SPR sensorgram response ([1]; 62 nM, Time 1.9 s): 0.5261
- SPR sensorgram response ([1]; 62 nM, Time 2 s): 0.5966
- SPR sensorgram response ([1]; 185 nM, Time 1.8 s): 1.6528
- SPR sensorgram response ([1]; 185 nM, Time 1.9 s): 1.8027
- SPR sensorgram response ([1]; 185 nM, Time 2 s): 1.949
- SPR sensorgram response ([1]; 555 nM, Time 1.8 s): 3.219
- SPR sensorgram response ([1]; 555 nM, Time 1.9 s): 3.5189
- SPR sensorgram response ([1]; 555 nM, Time 2 s): 3.8049
- SPR sensorgram response ([1]; 1670 nM, Time 1.8 s): 10.7814
- SPR sensorgram response ([1]; 1670 nM, Time 1.9 s): 11.5936
- SPR sensorgram response ([1]; 1670 nM, Time 2 s): 12.3892
- cyclase activity (%) [2, 9]: 100%
- cyclase activity (%) ([2]; concentration (uM) printed 1): 0%
Compound: Cc1c(Cc2ccccc2)c(-c2cc(Cl)nc(N)n2)nn1C [TDI-10229, reference compound]
- Beat frequency, Basal (mouse sperm; distal 10 μm of flagellum, 5 μM TDI-10229 or 10 nM TDI-11861, mean ± SEM): 10.4 ± 0.8 Hz
- Beat frequency, + HCO3- (mouse sperm; distal 10 μm, 25 mM NaHCO3, 5 μM TDI-10229 or 10 nM TDI-11861, mean ± SEM): 11.7 ± 1.8 Hz
- cyclase activity (%) ([2]; concentration (uM) 0): 9.237% and 13.938% and 16.2416% and 14.0981% and 17.1651% and 16.2955%
- cyclase activity (%) [2, 5]: 31.1405% and 32.9975% and 35.8708% and 34.2006% and 36.7402% and 35.3317%
- cyclase activity (%) ([2]; concentration (uM) -1 [sic]): 63.6617% and 56.9124% and 60.5839% and 60.8807% and 64.5679% and 61.7683%
- cyclase activity (%) [2, 6]: 97.3105% and 99.8737% and 91.8341% and 99.076% and 99.9562% and 83.5123%
- cyclase activity (%) [2, 7]: 102.738% and 99.4561% and 103.778% and 98.5001% and 102.473% and 98.7264%
- cyclase activity (%) [2, 8]: 99.2726% and 96.965% and 102.643% and 103.079% and 106.167% and 104.578%
- cyclase activity (%) [2, 10]: 2.892% and 2.778% and 4.319% and 3.785% and 3.6574% and 3.195%
- cyclase activity (%) [2, 11]: 87.3934% and 85.1243% and 83.28% and 86.7752% and 79.7419% and 79.6259%
- cyclase activity ([2]; concentration (uM) 0): 4537 and 5556.7 and 5828.8 and 5224.3 and 5509.4 and 5355.1
- cyclase activity [2, 5]: 10764.2 and 10900.3 and 11166.7 and 10456.8 and 10112.3 and 9643.4
- cyclase activity ([2]; concentration (uM) -1 [sic]): 20009.8 and 17605.2 and 17887.1 and 17401.4 and 16655.7 and 15598.8
- cyclase activity [2, 6]: 29576 and 29650 and 26385.2 and 27343.3 and 24976.9 and 20497.1
- cyclase activity [2, 7]: 31119 and 29532.9 and 29633.3 and 27193.4 and 25568.8 and 23924.4
- cyclase activity [2, 8]: 30133.8 and 28834.5 and 29324.4 and 28385.2 and 26437.3 and 25242.7
- cyclase activity [2, 9]: 30340.6 and 29685.4 and 28605.8 and 27583.8 and 24987.2 and 24211.3
- cyclase activity [2, 10]: 2733.4 and 2427.8 and 2586.5 and 2539.8 and 2333.2 and 2403.9
- cyclase activity ([2]; concentration (uM) printed 1): 1911.1 and 1649 and 1412.1 and 1554.7 and 1473.2 and 1684.2
- cyclase activity [2, 11]: 26756.6 and 25514.8 and 24059 and 24141.5 and 20223.7 and 19621.6
- Acrosome reacted (%), Prog (human sperm [3]; 10 μM progesterone): 8% and 18.1667% and 7.5% and 9% and 9.5% and 17.6667% and 10%
- Acrosome reacted (%), Prog + db-cAMP/IBMX (human sperm [3]; 10 μM progesterone, 5 mM db-cAMP/500 μM IBMX): 23% and 28.6636% and 15.5% and 15% and 16% and 30.6613% and 17.1667%
- Acrosome reacted (%), basal + db-cAMP/IBMX (human sperm [3]; 5 mM db-cAMP/500 μM IBMX): 8.5% and 15.8333% and 7.5% and 6.5% and 7% and 21.8333% and 11.3333%
- Acrosome reacted (%), basal (human sperm [3]; 180 min capacitating media): 6% and 15.1667% and 8% and 7% and 7.5% and 16.3548% and 6.667%
- Beat frequency, Basal (human sperm [4]; distal 5 µm of flagellum, 5 μM TDI-10229 or 10 nM TDI-11861, mean ± SEM): 12.2 ± 0.8 Hz
- Beat frequency, + HCO3- (human sperm [4]; distal 5 µm, 25 mM NaHCO3, 5 μM TDI-10229 or 10 nM TDI-11861, mean ± SEM): 14.5 ± 0.6 Hz
